No end group written: not given here.
Tested on: ob/ob mice
Assay: In vivo glucose absorption (oral glucose challenge)
Details: given orally at 100 µg, 30 minutes prior to an oral glucose challenge; serum glucose
Protocol: Eight female ob/ob mice, approximately 6 weeks old (Jackson Labs, Bar Harbor, ME) are adapted to a 4 hour daily feeding schedule for two weeks. After two weeks on the feeding schedule, the mice are give 100 µg of a peptide corresponding to the amino acid sequence as shown in SEQ ID NOs:4-6, 9-11, 14-17, 20-22, or 25-26 in 100 µl sterile 0.1% BSA by oral gavage, immediately after their eating period (post-prandially). Thirty minutes later, the mice are challenged orally with a 0.5 ml volume of 25% glucose. Retroorbital bleeds are done to determine serum glucose levels. Blood is drawn prior to peptide dosing, prior to oral glucose challenge, and at 1, 2, 4, and 20 hours following the glucose challenge.

With “zsig33-delta: peptide corresponding to residues 1 to 10 of SEQ ID NO:14; listing has 10-residue SEQ ID NO:20 (FNAPFDVGIK)” the post-prandial glucose absorption was “enhanced post-prandial glucose absorption”.
“zsig33-epsilon: peptide corresponding to residues 1 to 13 of SEQ ID NO:17; listing has 13-residue amidated SEQ ID NO:26 (LSGVQYQQHSQAL-NH2)” was tested, and the post-prandial glucose absorption was “enhanced post-prandial glucose absorption”.
In the case of “zsig33-gamma: peptide corresponding to residues 1 to 17 of SEQ ID NO:10; listing has 17-residue SEQ ID NO:14 (FLQDILWEEAKEAPADK)”, the post-prandial glucose absorption was “enhanced post-prandial glucose absorption”.
